The results in this text go back to ChEMBL document CHEMBL3588804, “Structure-activity relationship studies on acremomannolipin A, the potent calcium signal modulator with a novel glycolipid structure 3: role of the length of alditol side chain” (Bioorg Med Chem, 2015).

Activity calls are given as the source filed them. No cut-off for these calls is given here.

The test system of the assay is Schizosaccharomyces pombe. In words: Suppression of Cl- sensitive growth defect in calcineurin gene deleted Schizosaccharomyces pombe (h+ leu1 ura4-D18 ppb1::ura4+) at 100 uM after 3 days by filter paper disk assay in presence of 0.11 M MgCl2 in YPD medium.
Take `CCCCCCCC(=O)O[C@@H]1[C@H](OC[C@@H](O)[C@@H](O)[C@H](O)[C@H](O)CO)O[C@H](COC(=O)CCCCC)[C@@H](OC(=O)CCCCC)[C@@H]1OC(=O)CCCCC`: the result was Active.
With `CCCCCCCC(=O)O[C@@H]1[C@H](OCCO)O[C@H](COC(=O)CCCCC)[C@@H](OC(=O)CCCCC)[C@@H]1OC(=O)CCCCC` the entry was “inactive”; with `CCCCCCCC(=O)O[C@@H]1[C@H](OC[C@@H](O)[C@@H](O)[C@H](O)[C@H](O)[C@@H](O)CO)O[C@H](COC(=O)CCCCC)[C@@H](OC(=O)CCCCC)[C@@H]1OC(=O)CCCCC`, “Active”; with `CCCCCCCC(=O)O[C@@H]1[C@H](OC[C@@H](O)[C@@H](O)[C@H](O)CO)O[C@H](COC(=O)CCCCC)[C@@H](OC(=O)CCCCC)[C@@H]1OC(=O)CCCCC`, “Active”.
With `CCCCCCCC(=O)O[C@@H]1[C@H](OC[C@@H](O)CO)O[C@H](COC(=O)CCCCC)[C@@H](OC(=O)CCCCC)[C@@H]1OC(=O)CCCCC`, the result was inactive.
Regarding `CCCCCCCC(=O)O[C@@H]1[C@H](OC[C@@H](O)[C@@H](O)CO)O[C@H](COC(=O)CCCCC)[C@@H](OC(=O)CCCCC)[C@@H]1OC(=O)CCCCC`, the outcome was Active.
